# Results as given in the supplement of paper PMC10307832.
# Key:
# Experiment in all cases: relative viability (nuclei count vs DMSO), 5 days (fraction); higher = more cells survive
# NCI-H2085 = tested on: NCI-H2085
# Summary of the method: (§1)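 Each reported value is a median over duplicate plates. It expresses relative viability: treated-well nuclei count divided by vehicle-well nuclei count. Lung cancer cell lines in 1536-well plates were dosed by pin tool a day after seeding, alone with one drug or with a fixed anchor-drug dose plus five library-drug doses (not always all listed) in √10 steps, and nuclei were counted after 5 days.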
# H3255 = tested on: H3255
# Summary of the method: as §1
# NCI-H2087 = tested on: NCI-H2087
# Summary of the method: as §1
# NCI-H1651 = tested on: NCI-H1651
# Summary of the method: as §1
# NCI-H1355 = tested on: NCI-H1355
# Summary of the method: as §1
# LCLC-103H = tested on: LCLC-103H
# Summary of the method: as §1
# NCI-H650 = tested on: NCI-H650
# Summary of the method: as §1
# NCI-H2405 = tested on: NCI-H2405
# Summary of the method: as §1
# EMC-BAC-2 = tested on: EMC-BAC-2
# Summary of the method: as §1
# NCI-H322M = tested on: NCI-H322M
# Summary of the method: as §1
# NCI-H1395 = tested on: NCI-H1395
# Summary of the method: as §1
# NCI-H1944 = tested on: NCI-H1944
# Summary of the method: as §1
# EPLC-272H = tested on: EPLC-272H
# Summary of the method: as §1
# LCLC-97TM1 = tested on: LCLC-97TM1
# Summary of the method: as §1
# NCI-H1793 = tested on: NCI-H1793
# Summary of the method: as §1
# ChaGo-K-1 = tested on: ChaGo-K-1
# Summary of the method: as §1
# HCC-827 = tested on: HCC-827
# Summary of the method: as §1
# HCC-44 = tested on: HCC-44
# Summary of the method: as §1
compound,measurement,setting,value
O=C(O)c1ccc(-c2c[nH]c3ncc(-c4ccccc4)cc23)cc1C1CCCC1 + NC(=O)Nc1cc(-c2cccc(F)c2)sc1C(=O)N[C@H]1CCCNC1 [AZD7762] (partner 0.2 µM),relative viability,NCI-H2085; first compound 0.04 µM,0.944
same,relative viability,NCI-H2085; first compound 0.1265 µM,1.09
same,relative viability,NCI-H2085; first compound 0.4 µM,1.03
same,relative viability,NCI-H2085; first compound 1.265 µM,0.871
same,relative viability,H3255; first compound 0.04 µM,0.79
same,relative viability,H3255; first compound 0.1265 µM,0.991
same,relative viability,H3255; first compound 0.4 µM,0.953
same,relative viability,H3255; first compound 1.265 µM,0.88
same,relative viability,NCI-H2087; first compound 0.04 µM,1.29
same,relative viability,NCI-H2087; first compound 0.1265 µM,1.44
same,relative viability,NCI-H2087; first compound 0.4 µM,1.23
same,relative viability,NCI-H2087; first compound 1.265 µM,1.11
same,relative viability,NCI-H1651; first compound 0.04 µM,0.326
same,relative viability,NCI-H1651; first compound 0.1265 µM,0.56
same,relative viability,NCI-H1651; first compound 0.4 µM,0.551
same,relative viability,NCI-H1651; first compound 1.265 µM,0.426
same,relative viability,NCI-H1355; first compound 0.04 µM,0.729
same,relative viability,NCI-H1355; first compound 0.1265 µM,0.912
same,relative viability,NCI-H1355; first compound 0.4 µM,0.856
same,relative viability,NCI-H1355; first compound 1.265 µM,0.703
same,relative viability,LCLC-103H; first compound 0.04 µM,0.832
same,relative viability,LCLC-103H; first compound 0.1265 µM,0.822
same,relative viability,LCLC-103H; first compound 0.4 µM,0.846
same,relative viability,LCLC-103H; first compound 1.265 µM,0.759
same,relative viability,NCI-H650; first compound 0.04 µM,1.03
same,relative viability,NCI-H650; first compound 0.1265 µM,1.11
same,relative viability,NCI-H650; first compound 0.4 µM,1.02
same,relative viability,NCI-H650; first compound 1.265 µM,0.947
same,relative viability,NCI-H2405; first compound 0.04 µM,0.73
same,relative viability,NCI-H2405; first compound 0.1265 µM,0.919
same,relative viability,NCI-H2405; first compound 0.4 µM,0.767
same,relative viability,NCI-H2405; first compound 1.265 µM,0.583
same,relative viability,EMC-BAC-2; first compound 0.04 µM,1.1
same,relative viability,EMC-BAC-2; first compound 0.1265 µM,1.38
same,relative viability,EMC-BAC-2; first compound 0.4 µM,1.23
same,relative viability,EMC-BAC-2; first compound 1.265 µM,0.981
same,relative viability,NCI-H322M; first compound 0.04 µM,0.585
same,relative viability,NCI-H322M; first compound 0.1265 µM,0.631
same,relative viability,NCI-H322M; first compound 0.4 µM,0.625
same,relative viability,NCI-H322M; first compound 1.265 µM,0.65
same,relative viability,NCI-H1395; first compound 0.04 µM,0.416
same,relative viability,NCI-H1395; first compound 0.1265 µM,0.416
same,relative viability,NCI-H1395; first compound 0.4 µM,0.409
same,relative viability,NCI-H1395; first compound 1.265 µM,0.462
same,relative viability,NCI-H1944; first compound 0.04 µM,0.464
same,relative viability,NCI-H1944; first compound 0.1265 µM,0.622
same,relative viability,NCI-H1944; first compound 0.4 µM,0.637
same,relative viability,NCI-H1944; first compound 1.265 µM,0.802
same,relative viability,EPLC-272H; first compound 0.04 µM,0.246
same,relative viability,EPLC-272H; first compound 0.1265 µM,0.32
same,relative viability,EPLC-272H; first compound 0.4 µM,0.21
same,relative viability,EPLC-272H; first compound 1.265 µM,0.246
same,relative viability,LCLC-97TM1; first compound 0.04 µM,0.278
same,relative viability,LCLC-97TM1; first compound 0.1265 µM,0.368
same,relative viability,LCLC-97TM1; first compound 0.4 µM,0.302
same,relative viability,LCLC-97TM1; first compound 1.265 µM,0.268
same,relative viability,NCI-H1793; first compound 0.04 µM,0.513
same,relative viability,NCI-H1793; first compound 0.1265 µM,0.752
same,relative viability,NCI-H1793; first compound 0.4 µM,0.544
same,relative viability,NCI-H1793; first compound 1.265 µM,0.798
same,relative viability,ChaGo-K-1; first compound 0.04 µM,0.845
same,relative viability,ChaGo-K-1; first compound 0.1265 µM,1.02
same,relative viability,ChaGo-K-1; first compound 0.4 µM,0.907
same,relative viability,ChaGo-K-1; first compound 1.265 µM,0.848
same,relative viability,HCC-827; first compound 0.04 µM,0.168
same,relative viability,HCC-827; first compound 0.1265 µM,0.191
same,relative viability,HCC-827; first compound 0.4 µM,0.242
same,relative viability,HCC-827; first compound 1.265 µM,0.203
same,relative viability,HCC-44; first compound 0.04 µM,1.07
same,relative viability,HCC-44; first compound 0.1265 µM,1.03
same,relative viability,HCC-44; first compound 0.4 µM,1.01
same,relative viability,HCC-44; first compound 1.265 µM,0.946
